Reference: EP4201929A1, “QUINOXALINE THIOREDOXIN REDUCTASE INHIBITORS” (geneXplain GmbH, priority 2021, dated 2023)

Tests used:
Test in all cases: Growth suppression, cancer cell line panel (resazurin)
Format in all cases: cell-based
IMR32 = IMR32 neuroblastoma, 48 hours
Description: (§1) Breast, colon, ovarian, cervical, liver and lung carcinoma cell lines were grown in DMEM supplemented with 10% FBS, and antibiotics were cultured at 37 °C and 5% CO2. Osteosarcoma, melanoma, lymphoma, neuroblastoma and leukemia cell lines were cultured in RPMI 1640 with 10% FBS and antibiotics. An oxygen concentration of 0.3% was obtained by flushing a sealed box containing the cells with premixed gas composed of 95% nitrogen (N2) and 5% CO2 (AGA AB, Sweden). To obtain an oxygen concentration of 0.05%, the cells were flushed with the premixed gas continuously throughout the experiment.
(§2) Cells were grown in 96-well plates at a density of 3000 cells per well with or without doxycycline and treated with compounds. After 48 hours of incubation the proliferative cell reagent resazurin (Thermo Fisher Scientific) was added to the cells. The degree of resazurin reduction, which reflects cell viability, was measured by microplate reader by monitoring the absorbance at 570 nm and 600 nm, according to the manufacturer.
(§3) Growth suppression by the soluble compound 1d*HCl in a panel of 27 cancer cell lines. The panel of cancer cell lines, including carcinomas of breast (MDA-MB231, SKBR3, T47D, MCF7; BT549, BT20, MDA-MB468), colon, (SW480, RKO, HT29, HCT116) ovarian (OVCAR3, OVCAR4, OVCAR8), cervical (SW756, C33A), liver (HEPG2) and lung (H23), osteosarcoma (SJSA and U2OS), melanoma (ME180), lymphoma (Raji, HDLM2), neuroblastoma (SKNAS, IMR32) and leukemia (NB4, K562) were treated with increasing concentrations of 1d*HCl: 0.4; 0.8; 1.6; 3.2; 6.4; 12.8; 25.6 µM in 96-well plates. After 48 hours of incubation the proliferative cell reagent resazurin was added to the cells. The degree of resazurin reduction, which reflects cell viability, was measured by microplate reader by monitoring the absorbance at 570 nm and 600 nm, according to the manufacturer, and the IC50 and AUC (area under curve) were determined (Table 2). As could be seen in Table 2, 1d*HCl suppressed the growth of cancer cell lines of a different origin, including carcinomas, osteosarcomas, melanoma, lymphoma, leukemia and neuroblastoma. These findings open up a possibility of the application of the present invention in anti-cancer therapy in a broad range of tumor types. Table 2: a) Breast cancer

Raji = Raji lymphoma, 48 hours
Description: as §1, §2, §3

OVCAR8 = OVCAR8 ovarian, 48 hours
Description: as §1, §2, §3

MCF7 = MCF7 breast, 48 hours
Description: as §1, §2, §3

C33A = C33A cervical, 48 hours
Description: as §1, §2, §3

HepG2 = HepG2 liver, 48 hours
Description: as §1, §2, §3

K562 = K562 leukemia, 48 hours
Description: as §1, §2, §3

OVCAR3 = OVCAR3 ovarian, 48 hours
Description: as §1, §2, §3

BT549 = BT549 breast, 48 hours
Description: as §1, §2, §3

SW756 = SW756 cervical, 48 hours
Description: as §1, §2, §3

HDLM2 = HDLM2 lymphoma, 48 hours
Description: as §1, §2, §3

RKO = RKO colon, 48 hours
Description: as §1, §2, §3

SW480 = SW480 colon, 48 hours
Description: as §1, §2, §3

MDA- MB231 = details: MDA-MB231 breast, 48 hours
Description: as §1, §2, §3

HT29 = HT29 colon, 48 hours
Description: as §1, §2, §3

U2OS = U2OS osteosarcoma, 48 hours
Description: as §1, §2, §3

SJSA = SJSA osteosarcoma, 48 hours
Description: as §1, §2, §3

NB4 = NB4 leukemia, 48 hours
Description: as §1, §2, §3

SKNAS = SKNAS neuroblastoma, 48 hours
Description: as §1, §2, §3

BT20 = BT20 breast, 48 hours
Description: as §1, §2, §3

HCT116 = HCT116 colon, 48 hours
Description: as §1, §2, §3

SKBR3 = SKBR3 breast, 48 hours
Description: as §1, §2, §3

[1] = Homo sapiens, resazurin, read-out: ICso

`Cl.N#Cc1c(-c2cccnc2)[n+]([O-])c2cc(F)c(N3CCOCC3)cc2[n+]1[O-]` [1d*HCl, 6-Fluoro-7-(morpholin-4-yl)-3-(pyridin-3-yl)quinoxaline-2-carbonitrile-1,4-dioxide hydrochloride] was tested, and the IC50 (IMR32; Homo sapiens, IMR-32, resazurin, read-out: ICso) was 5150 nM, the AUC (IMR32; area under curve, 0.4-25.6 µM) was 6,40 and the IC50 (Raji; Homo sapiens, resazurin) was 1220 nM. For the same compound, the AUC (Raji; area under curve, 0.4-25.6 µM) was 2,93, the IC50 (OVCAR8; Homo sapiens, OVCAR-8, resazurin) was 2360 nM and the AUC (OVCAR8; area under curve, 0.4-25.6 µM) was 2,98. For the same compound, the IC50 (MCF7; Homo sapiens, resazurin) was 2540 nM, the AUC (MCF7; area under curve, 0.4-25.6 µM) was 3,64 and the IC50 (C33A; resazurin) was “variable”. For the same compound, the AUC (C33A; area under curve, 0.4-25.6 µM) was 21, the AUC (HepG2; area under curve, 0.4-25.6 µM) was 4,54 and the IC50 (HepG2; [1]) was 3590 nM. For the same compound, the IC50 (K562; Homo sapiens, resazurin) was 2950 nM, the AUC (K562; area under curve, 0.4-25.6 µM) was 4,39 and the IC50 (OVCAR3; Homo sapiens, OVCAR-3, resazurin) was 2640 nM. For the same compound, the AUC (OVCAR3; area under curve, 0.4-25.6 µM) was 4,813, the AUC (BT549; area under curve, 0.4-25.6 µM) was 2,52 and the IC50 (BT549; Homo sapiens, BT-549, resazurin) was 1700 nM. For the same compound, the IC50 (SW756; Homo sapiens, resazurin) was 1540 nM, the AUC (SW756; area under curve, 0.4-25.6 µM) was 2,84 and the AUC (HDLM2; area under curve, 0.4-25.6 µM) was 4,68. For the same compound, the IC50 (HDLM2; Homo sapiens, HDLM-2, resazurin) was 1270 nM, the IC50 (RKO; Homo sapiens, resazurin) was 538 nM and the AUC (RKO; area under curve, 0.4-25.6 µM) was 0,942. For the same compound, the IC50 (SW480; Homo sapiens, resazurin) was 3720 nM, the AUC (SW480; area under curve, 0.4-25.6 µM) was 4,78 and the IC50 (MDA- MB231; Homo sapiens, MDA-MB-231, resazurin) was 780 nM. For the same compound, the AUC (MDA- MB231; area under curve, 0.4-25.6 µM) was 1,21, the AUC (HT29; area under curve, 0.4-25.6 µM) was 4,77 and the IC50 (HT29; Homo sapiens, HT-29, resazurin) was 3500 nM. The IC50 (U2OS; [1]) was 1040 nM, the AUC (U2OS; area under curve, 0.4-25.6 µM) was 2,10 and the IC50 (SJSA; resazurin, read-out: ICso) was 4080 nM. For the same compound, the AUC (SJSA; area under curve, 0.4-25.6 µM) was 4,96, the IC50 (NB4; resazurin) was “variable” and the AUC (NB4; area under curve, 0.4-25.6 µM) was 25,4. The IC50 (SKNAS; Homo sapiens, SK-N-AS, resazurin, read-out: ICso) was 4680 nM, the AUC (SKNAS; area under curve, 0.4-25.6 µM) was 7,73 and the AUC (BT20; area under curve, 0.4-25.6 µM) was 9,64. For the same compound, the IC50 (BT20; Homo sapiens, BT-20, resazurin) was 5910 nM, the AUC (HCT116; area under curve, 0.4-25.6 µM) was 1,37 and the IC50 (HCT116; Homo sapiens, HCT-116, resazurin) was 860 nM. For the same compound, the IC50 (SKBR3; Homo sapiens, SK-BR-3, resazurin) was 2130 nM and the AUC (SKBR3; area under curve, 0.4-25.6 µM) was 3,06.
